For data set [1], the target named is T1, Melatonin receptor type 1B (Homo sapiens, UniProt P49286).
T1 sequence (P49286 whole entry): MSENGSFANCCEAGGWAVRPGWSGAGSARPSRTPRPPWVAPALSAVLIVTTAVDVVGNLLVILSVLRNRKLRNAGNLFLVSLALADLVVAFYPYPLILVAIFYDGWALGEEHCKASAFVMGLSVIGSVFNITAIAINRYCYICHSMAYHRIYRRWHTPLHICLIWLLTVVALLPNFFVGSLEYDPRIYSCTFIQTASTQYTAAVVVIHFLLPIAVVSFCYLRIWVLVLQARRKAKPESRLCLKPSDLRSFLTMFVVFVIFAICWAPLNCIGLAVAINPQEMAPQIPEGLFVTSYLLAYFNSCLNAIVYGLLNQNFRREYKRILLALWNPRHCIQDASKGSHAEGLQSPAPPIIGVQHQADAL
As to the kind of experiment: Inhibition of 2-[125I]iodomelatonin binding to membrane preparations of NIH3T3 cells stably expressing human Melatonin receptor type 1B. It counts as cell membranes.

Data set [2] has as its target T2, Melatonin receptor type 1A (Homo sapiens, UniProt P48039). As to the kind of experiment: Inhibition of 2-[125I]iodomelatonin binding to membrane preparations of NIH3T3 cells stably expressing human Melatonin receptor type 1A. It counts as cell membranes.
Data set [3] can be described thus: Bioavailability in rat (dose 1 mg/kg p.o.). Format: ADME, organism-based. To be noted: in vivo, po.
The nature of data set [4]: Half-life in rats after the administration of 1 mg/kg i.v. dose. Format: ADME, organism-based. Also on record: dose 1 mg/kg, route intravenous. To be noted: rat, in vivo, iv.
The target in data set [5] is T2, Melatonin receptor type 1A. In words: Intrinsic activity towards human Melatonin receptor type 1A relative to melatonin.
Data set [6] in a line: Clearance in rats after the administration of 1 mg/kg i.v. dose. Further details: dose 1 mg/kg, route intravenous. It counts as ADME, organism-based. To be noted: rat, in vivo, iv.
Data set [7] deals with T1, Melatonin receptor type 1B. In words: Agonist activity towards human Melatonin receptor type 1B was determined by its ability to inhibit forskolin stimulated cAMP accumulation. Format: functional. (In general: Changes in cAMP serve as a functional read-out for many G protein-coupled receptors.)
The target in data set [8] is T2, Melatonin receptor type 1A. As to the kind of experiment: Agonist activity towards human Melatonin receptor type 1A was determined by its ability to inhibit forskolin stimulated cAMP accumulation. Format: functional.
Data set [9] can be described thus: Volume of distribution in rats after the administration of 1 mg/kg i.v. dose. Format: ADME, organism-based. Further details: dose 1 mg/kg, route intravenous. To be noted: rat, in vivo, iv.

T2 sequence (P48039 whole entry): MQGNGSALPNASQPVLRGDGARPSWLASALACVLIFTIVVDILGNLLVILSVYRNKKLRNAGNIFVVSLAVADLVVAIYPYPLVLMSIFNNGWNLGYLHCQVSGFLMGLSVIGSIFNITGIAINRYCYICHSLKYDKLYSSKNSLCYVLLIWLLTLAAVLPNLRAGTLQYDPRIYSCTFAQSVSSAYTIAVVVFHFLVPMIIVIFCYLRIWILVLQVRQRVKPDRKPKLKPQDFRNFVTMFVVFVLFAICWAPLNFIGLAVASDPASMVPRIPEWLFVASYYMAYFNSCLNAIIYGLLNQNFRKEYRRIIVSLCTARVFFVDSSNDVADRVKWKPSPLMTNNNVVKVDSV

Usually Ki stands for a measure of affinity in units of concentration, obtained from inhibition or displacement. A lower Ki goes with higher affinity. In the case of `O=C(NC[C@@H]1CC1c1cccc2oc(CCCCc3ccccc3)cc12)C1CC1` (some centres undefined), the results for the Ki in [1] and in data set [2] were 0.033 µM and 0.016 µM, respectively.

As for `CCCC(=O)NC[C@@H]1CC1c1cccc2oc(CCCCc3ccccc3)cc12` (some centres undefined), the Ki in [1] and in data set [2] was 0.01 µM each time.

Take `CC(=O)N[C@H]1CCN(c2cccc3oc(CCCCc4ccccc4)cc23)C1`: the figures for the Ki in [1] and in data set [2] were 0.014 µM and 0.022 µM, respectively.

With `CCCC(=O)NCCCc1cccc2oc(CCCCc3ccccc3)cc12`, the Ki in [1] turned out to be 0.082 µM; in data set [2], 0.016 µM.

For the compound `CC(C)C(=O)N[C@H]1CCN(c2cccc3oc(CCCCc4ccccc4)cc23)C1`, the Ki was 0.162 µM in [1] and 0.105 µM in data set [2].

For the compound `O=C(N[C@H]1CCN(c2cccc3oc(CCCCc4ccccc4)cc23)C1)C1CC1`, the Ki in data set [1] was 0.152 µM; in data set [2] it was 0.042 µM.

For the compound `CCNC(=O)N[C@H]1CCN(c2cccc3oc(CCCCc4ccccc4)cc23)C1`, the Ki in data set [1] was 0.098 µM; in data set [2] it was 0.039 µM.

`O=C(NCCCc1cccc2oc(CCCCc3ccccc3)cc12)C1CC1`: the Ki was 0.095 µM in data set [1] and 0.006 µM in data set [2].

On to `CCCC(=O)N[C@H]1CCN(c2cccc3oc(CCCCc4ccccc4)cc23)C1`, for which the Ki was determined as 0.0072 µM in data set [1] and 0.011 µM in data set [2].

For `CCNC(=O)NC[C@@H]1C[C@H]1c1cccc2oc(CCCCc3ccccc3)cc12`, the values for the Ki in [1] and in [2] were 0.09 µM and 0.033 µM, respectively.

With `CCC(=O)NC[C@@H]1CC1c1cccc2oc(CCCCc3ccccc3)cc12` (some centres undefined), the Ki in [1] came out at 0.0028 µM; in [2] it was 0.0021 µM.

As for `CC(=O)NCCCc1cccc2oc(CCCCc3ccccc3)cc12`, the Ki in data set [1] is 0.127 µM; in data set [2], 0.019 µM.

The bioavailability is dose-corrected exposure relative to a reference, in per cent. Higher therefore signals good availability. The compound `COc1ccc2[nH]cc(CCNC(C)=O)c2c1` [MELATONIN] yielded a bioavailability in [3] of 24%.

As for `CC(C)C(=O)NC[C@@H]1CC1c1cccc2oc(CCCCc3ccccc3)cc12` (some centres undefined), the Ki in data set [1] is 0.054 µM; in data set [2] it was 0.023 µM.

What is called half-life is the time needed for the level to fall by half in the phase considered. High values mean slow decline, low ones rapid decline. The clearance is the rate of elimination divided by the concentration. By EC50 is commonly meant the concentration giving half of the maximal effect. A lower EC50 goes with a more potent agent. By Vd is commonly meant the apparent volume that relates the amount in the body to the concentration in plasma or blood. The compound `CC(=O)NC[C@@H]1CC1c1cccc2oc(CCCCc3ccccc3)cc12` (some centres undefined) had a half-life in data set [4] of 3.8 h. For the same compound, in data set [5], the Activity was determined as 0.97. Moreover, the Ki was found to be 0.01 µM in data set [1] and 0.0026 µM in data set [2]. In [6], this compound returned a clearance of 1.65 L/h/kg. Moreover, the EC50 was 0.021 µM in data set [7] and 0.0006 µM in data set [8]. The compound further returned a Vd in [9] of 0.557 L/kg. The bioavailability in data set [3] worked out at 90%.

Take `CCNC(=O)NCCCc1cccc2oc(CCCCc3ccccc3)cc12`: the values for the Ki in data set [1] and in [2] were 0.052 µM and 0.021 µM, respectively.

As for `CCC(=O)N[C@H]1CCN(c2cccc3oc(CCCCc4ccccc4)cc23)C1`, the Ki in data set [1] came to 0.006 µM; in [2], 0.0024 µM.

For `CC(C)C(=O)NCCCc1cccc2oc(CCCCc3ccccc3)cc12`, the Ki in data set [1] was 0.083 µM; in data set [2] it was 0.0037 µM.

On to `CCC(=O)NCCCc1cccc2oc(CCCCc3ccccc3)cc12`, for which the Ki in data set [1] worked out at 0.06 µM; in [2], 0.0075 µM.

The record behind these values is ChEMBL document CHEMBL1137903 (Bioorg Med Chem Lett, 2004).
